Laboratory results reported in ChEMBL document CHEMBL6121001, “Benzimidazole analogues active against adult Schistosoma mansoni: SAR analyses, In vivo efficacy in mice, and preliminary mechanistic studies as potential inhibitors of hemozoin formation” (Eur J Med Chem, 2025).

Test: Apparent permeability of compound at 1 mM incubated for 4 hrs by PAMPA based LC-MS/MS analysis
Assay type: ADME

For Oc1ncccc1CN1CCC(Nc2nc3ccccc3n2Cc2ccc(C(F)(F)F)cc2)CC1, the Papp at 4 h, 1000 µM was 0.18 ×10⁻⁶ cm/s.

With FC(F)(F)c1ccc(Cn2c(NC3CCN(Cc4ccccc4)CC3)nc3ccccc32)cc1 the Papp at 4 h, 1000 µM was 18 ×10⁻⁶ cm/s.

For Oc1ccccc1CN1CCC(Nc2nc3ccccc3n2Cc2ccc(C(F)(F)F)cc2)CC1, the Papp at 4 h, 1000 µM was 23 ×10⁻⁶ cm/s.
